# Values quoted from earlier work, collected in patent publication US6743448B2 (priority 2000, dated 2004).
# How the values were obtained:
# IGF-I mRNA = details: relative to hypophysectomized control animals
# prostatic cells = details: 1 nM for 2-7 days
# [1] = test system: formation of DHT and androstenedione; details: 14C-testosterone as substrate, effective inhibitory concentrations, n 4, p<0.001
structure (smiles),measurement,setting,value
"C[C@]12CCC(=O)C[C@@H]1CC[C@@H]1[C@@H]2CC[C@]2(C)[C@@H](O)CC[C@@H]12 [DHT, dihydrotestosterone]",Increase of the IGF-I mRNA level,IGF-I mRNA,40 times
"COc1ccc2[nH]cc(CCNC(C)=O)c2c1 [Melatonin, melatonin]",Effect on cell growth,prostatic cells,inhibit cell growth
"CC(=O)[C@H]1CC[C@H]2[C@@H]3CCC4=CC(=O)CC[C@]4(C)[C@H]3CC[C@]12C [Progesterone, progesterone]",Inhibition of the formation of DHT,[1],10 fold
same,Inhibition of the formation of androstenedione,[1],3-5 fold
"C[C@]12CC[C@H]3[C@@H](CCC4=CC(=O)CC[C@@]43C)[C@@H]1CC[C@@H]2O [Testosterone, (17)-17-Hydroxyandrost-4-en-3-one]",Increase of the IGF-I mRNA level,IGF-I mRNA,30 times
